In US20120196927A1, “PROPHYLACTIC AND/OR THERAPEUTIC AGENT FOR METABOLIC SYNDROME” (priority 2009, published 2012):

Assays:
[1] = system: GLUT4 gene and PPARγ gene; test: Tangeretin, obesity-induced mice: mRNA expression of GLUT4 and PPARγ (real time RT-PCR); format: in vivo, mouse; settings: HFD = 1, tangeretin 200 mg/kg/day p.o. 5 weeks
Protocol: mRNA expression level was determined by using real time PCR as follows. According to the direction attached with ISOGEN (Nippon Gene Co., Ltd), RNA was extracted from white adipose tissue, liver, and skeletal muscle. Next, cDNA was prepared from 1 μg of RNA by using Reverse Transcription System kit (Promega, USA). Subsequently, according to the direction attached with FastStart universal SYBR (Registered trademark) Greenmaster PCR kit reagent (Roche Diagnostics, Germany), primers suitable for each intended gene in the following experiments were synthesized. Real time PCR system 7700 HT (Applied Biosytems, USA) was used for the measurement, the cDNA was used as templates for the real time PCR. Reaction conditions were followed to those for the PCR kit reagents. Quantitative analysis of RNA level was performed by Comparison Ct method, using glyceraldehyde 3-phosphate dehydrogenase (GAPDH) as the standard.
As the same as that in the Example 1, after the completion of the experiment, the white adipose tissue was excised to determine the both mRNA expression levels of GLUT4 gene mRNA and PPARγ gene by using the real time RT-PCR. Ratios of the expression levels when that of the HFD is 1 were shown in the table 18 and FIGS. 11A and 11B.

C57BL/6 male mice [2] = test: Tangeretin, obesity-induced mice: tissue weight; format: in vivo, mouse; settings: HFD obesity-induced mice, tangeretin 200 mg/kg/day p.o. 5 weeks
From the text: (§1) Six week age of C57BL/6 male mice were preliminary kept for 1 week (−9 to −8 week), and then classified into three groups. […] was given to one group, and HFD was given to other two groups, for 8 weeks (−8 to +5 week). From 8 weeks (15 week age) to 13 weeks, the following agents were given to each group for 5 weeks per os (hereinafter, they were referred to as LFD administration group and HFD administration group in the Example 6). The compositions of the LFD or HFD were the same as those in the Example 3.
(§2) To the LFD administration group (n=8) and the HFD administration group (n=11), 0.3% CMC aqueous solution was given at the amount of 0.01 mL/g of the body weight. […] The schedule of the feed ingestion and the agent administration of the above-mentioned 3 groups were schematically shown in FIG. 12A.
After the completion of the experiment, the mice in each group were dissected to excise organs and so forth to measure their weight. The white adipose tissue was excised from retroperitoneum and periphery of epididymis.

C57BL/6 male mice [3] = test: Tangeretin, obesity-induced mice: body weight gain and ingestion amount; format: in vivo, mouse; settings: HFD obesity-induced C57BL/6 mice
From the text: as §1, §2
The ingestion amount of the mice in each group was measured twice a week. The ingestion amounts in 24 hours/3 mice/cage were measured and obtained as mean average of each group for 5 weeks.

C57BL/6 male mice [4] = test: Tangeretin, obesity-induced mice: blood glucose in fasting state; format: in vivo, mouse; settings: tangeretin 200 mg/kg/day p.o., HFD
Protocol: The blood glucose level was measured as the same as that of the example 1. […] As mentioned above, it was shown that tangeretin has the inhibition effects of the blood glucose level in the fasting state when the high fat diet was ingested.

C57BL/6 male mice [5] = test: Tangeretin, obesity-induced mice: blood TG and T-CHO level; format: in vivo, mouse; settings: fasting, tangeretin 200 mg/kg/day p.o., HFD
Protocol: After the completion of the experiment, blood neutral fat level in fasting state was measured at the time points of beginning of the experiment, two and five weeks after the administration.
The blood neutral fat (TG) level was measured as the same as that employed in the example 1.
The total cholesterol (T-CHO) level in blood was measured as the same as that in the Example.

C57BL/6 male mice [6] = test: Tangeretin, obesity-induced mice: oral glucose tolerance test (OGTT); format: in vivo, mouse; settings: tangeretin 200 mg/kg/day p.o., HFD
Protocol: The oral glucose tolerance test (OGTT) was carried out as the same as that in the example 1.

GLUT4 protein = test: Diabetes model mice: GLUT4 protein expression level (Western blotting); format: in vivo, mouse; settings: ob/ob mice, nobiletin 200 mg/kg/day, Pioglitazone 30 mg/kg/day
Protocol: After finishing the experiment, the white adipose tissue and skeletal muscle were excised according to that described in the example 1, protein expression level of GLUT 4 were detected by using Western blotting method. The expression levels of GLUT4 protein were determined by using Na^+/K^+ ATPase α-1 protein as an internal reference.

[7] = system: gluconeogenesis-related genes PEPCK, G6Pase; test: Diabetes model mice: mRNA expression in the liver (real time RT-PCR); format: in vivo, mouse; settings: ob/ob mice, Vehicle = 1.00, nobiletin 200 mg/kg/day, Pioglitazone 30 mg/kg/day, 5 weeks
Protocol: (§3) The effects by nobiletin ingestion to the mRNA expression in the white adipose tissue and the liver were measured (n=10).
(§4) After the termination of the administration period for 5 weeks, mRNA expression levels of respective genes shown in the table 10 were determined by using real time RT-PCR method. The real time RT-PCR was carried out according to an operation manual provided by ISOGEN (NIPPON GENE CO., LTD); RNA was extracted from the white adipose tissue and the liver. Next, cDNA was prepared from using 1 μg of RNA by using Reverse Transcription System kit (Promega Corp., USA). Next, suitable primers for the above-mentioned genes were prepared according to the operation manual provided by FastStart universal SYBR (a registered trademark) Greenmaster PCR KIT agent (Roche Diagnostics K. K., Germany).
(§5) Real time PCR system 7700HT (Applied Biosytems, USA) was used for the determination to carry out the real time PCR by using the cDNAs as templates. Each reaction conditions were set according to the manual of the PCR KIT. Quantitative analysis of the RNA amount was carried out based on comparative Ct method by using glyceraldehyde 3-phosphate dehydrogenase (GAPDH) as the standard reference.

C57BL/6J-ob/ob mice [8] = test: Diabetes model mice: fasting blood glucose level; format: in vivo, mouse; settings: nobiletin 200 mg/kg/day, Pioglitazone 30 mg/kg/day p.o.
Protocol: Two weeks or 5 weeks from the beginning of the administration, the fasting blood glucose was measured (n=10). The measurement of the blood glucose level was carried out as the same as that of the example 1.

[9] = system: GLUT4, Adiponectin, TNF-α, MCP-1, IL-6, PPARγ, aP2, LPL, Perilipin genes; test: Diabetes model mice: mRNA expression in the white adipose tissue (real time RT-PCR); format: in vivo, mouse; settings: ob/ob mice, Vehicle = 1.00, nobiletin 200 mg/kg/day, Pioglitazone 30 mg/kg/day, 5 weeks
Protocol: as §3, §4, §5

C57BL/6J-ob/ob mice [10] = settings: nobiletin 200 mg/kg/day, Pioglitazone 30 mg/kg/day, 5 weeks
From the text: (§6) Diabetes model mice and the experimental system were as follows. As the diabetes model mice, 7 week age of male C57BL/6J-ob/ob (hereinafter, it was referred to as “ob/ob”) were purchased from Charles River Laboratories Japan Inc., and used as 10 mice/group.
For the negative control group (from FIGS. 5 to 10, it was shown as Vehicle; hereinafter, it is referred to as “solvent administration group”), 0.3% of CMC aqueous solution was administrated orally for 5 weeks in everyday at the dosage of 0.01 mL/g body weight. For the positive control group (in FIGS. 5 to 10 and hereinafter, it was referred to as “P30 administrated group”), 3 mg of Pioglitazone was suspended in 0.3% CMC aqueous solution so as to be orally administrated at the dosage of 0.01 mL/g body weight for 5 weeks in everyday (dosage: 30 mg/kg body weight/day). […]
The blood insulin level was measured as described in below. […] As lipids in plasma, concentrations of neutral fat (TG) and total cholesterol (T-CHO) were measured. Plasma insulin level was measured by using rebis insulin mouse (type U) (Shibayagi Co. Ltd.) based on the enzyme-immunoassay.

C57BL/6J-ob/ob mice [11] = test: Diabetes model mice: oral glucose tolerance test (OGTT); format: in vivo, mouse; settings: nobiletin 200 mg/kg/day, Pioglitazone 30 mg/kg/day
Protocol: The oral glucose tolerance test (OGTT) for the diabetes model mice (ob/ob) to which the nobiletin and others were administrated was subjected to the glucose tolerance test for studying the effects.
From 4 weeks after the start of the administration, the mice in each group were fasted for 16 hours, and then they were administrated 2 g/kg body weight of glucose per os. After the administration of glucose, […] of blood was collected from the tail vein at the time point of 0, 30, 60 and 120 minutes. Collected blood was centrifuged at 4° C., 3,000×g, for 15 minute to obtain plasma (n=10). The blood glucose level was measured as the same as that described in the example 1.

C57BL/6J-ob/ob mice [12] = format: in vivo, mouse; settings: p.o. daily 5 weeks, nobiletin 200 mg/kg/day (No200), Pioglitazone 30 mg/kg/day (P30)
From the text: as §6
For the negative control group (from FIGS. 5 to 10, it was shown as Vehicle; hereinafter, it is referred to as “solvent administration group”), 0.3% of CMC aqueous solution was administrated orally for 5 weeks in everyday at the dosage of 0.01 mL/g body weight. For the positive control group (in FIGS. 5 to 10 and hereinafter, it was referred to as “P30 administrated group”), 3 mg of Pioglitazone was suspended in 0.3% CMC aqueous solution so as to be orally administrated at the dosage of 0.01 mL/g body weight for 5 weeks in everyday (dosage: 30 mg/kg body weight/day).
For the sample ingestion group (in FIGS. 5 to 10 and hereinafter, it is referred to as “No200 ingestion group”), 20 mg of nobiletin purified as mentioned above (1) was suspended in 0.3% of carboxymethylcellulose (CMC) aqueous solution so as to be orally administrated at the dose of 0.01 mL/g body weight for 5 weeks in everyday (the dose: 200 mg/kg/day).
The body weight of mice, ingestion amount, weight of the white adipose tissue and liver weight of each mice were measured as the same as described in the example 3.

[13] = Western blotting, Vehicle = 1.00, 5 weeks

COc1ccc(-c2cc(=O)c3c(OC)c(OC)c(OC)c(OC)c3o2)cc1 [tangeretin]
Expression level (ratio), [M]GLUT4 ([1]; skeletal muscle mRNA): 1.72 | Expression level (ratio), [W]GLUT4 ([1]; white adipose tissue mRNA): 0.42 | Expression level (ratio), [W]PPARγ ([1]; white adipose tissue mRNA): 0.43 | Tissue Weight, Kidney (C57BL/6 male mice [2]): 0.31 ± 0.01 g/100 g of body weight | Tissue Weight, Liver (C57BL/6 male mice [2]): 1.48 ± 0.11 g/100 g of body weight | Tissue weight, Epididymis white adipose tissue (C57BL/6 male mice [2]): 0.99 ± 0.12 g/100 g of body weight | Tissue weight, Retroperitoneum white adipose tissue (C57BL/6 male mice [2]): 2.38 ± 0.09 g/100 g of body weight | Tissue weight, White adipose tissue in total (C57BL/6 male mice [2]): 3.38 ± 0.16 g/100 g of body weight | Body weight gain (C57BL/6 male mice [3]; tangeretin 200 mg/kg/day p.o. 5 weeks (HFD+T200)): 3.94 ± 0.45 g | Ingestion amount (C57BL/6 male mice [3]; tangeretin 200 mg/kg/day p.o., mean of 5 weeks): 2.47 ± 0.24 g/day | Blood glucose level (fasting state) (C57BL/6 male mice [4]; time after administration 0 (head prints min.)): 142.82 ± 7.03 mg/dL | Blood glucose level (fasting state) (C57BL/6 male mice [4]; time after administration 2 (head prints min.)): 164.79 ± 9.82 mg/dL | Blood glucose level (fasting state) (C57BL/6 male mice [4]; time after administration 5 (head prints min.)): 124.75 ± 7.14 mg/dL | Blood TG level (C57BL/6 male mice [5]; 0 weeks after administration): 108.70 ± 7.75 mg/dL | Blood TG level (C57BL/6 male mice [5]; 2 weeks after administration): 107.89 ± 9.46 mg/dL | Blood TG level (C57BL/6 male mice [5]; 5 weeks after administration): 105.42 ± 7.54 mg/dL | Blood glucose level (OGTT) (C57BL/6 male mice [6]; 0 min after glucose): 124.75 ± 7.14 mg/dL | Blood glucose level (OGTT) (C57BL/6 male mice [6]; 15 min after glucose): 347.43 ± 11.82 mg/dL | Blood glucose level (OGTT) (C57BL/6 male mice [6]; 30 min after glucose): 309.73 ± 17.88 mg/dL | Blood glucose level (OGTT) (C57BL/6 male mice [6]; 60 min after glucose): 274.14 ± 19.04 mg/dL | Blood glucose level (OGTT) (C57BL/6 male mice [6]; 120 min after glucose): 265.19 ± 15.82 mg/dL

CCc1ccc(CCOc2ccc(CC3SC(=O)NC3=O)cc2)nc1 (stereo not shown) [Pioglitazone, reference compound]
Gene expression level (ratio), Skeletal muscle (GLUT4 protein) (GLUT4 protein; [13]): 3.15 | Gene expression level (ratio), White adipose tissue (GLUT4 protein) (GLUT4 protein; [13]): 2.24 | GLUT4 protein expression amount in the skeletal muscle, times higher than vehicle administration group (GLUT4 protein): ~3 times | GLUT4 protein expression level in the white adipose tissue, times higher than vehicle administration group (GLUT4 protein): 2.2 times | Gene expression level (ratio), [L]G6Pase [7]: 0.23 ± 0.04 | Gene expression level (ratio), [L]PEPCK [7]: 0.57 ± 0.01 | Blood glucose level (fasting) (C57BL/6J-ob/ob mice [8]; 0 week after administration): 183.61 ± 16.51 mg/dL | Blood glucose level (fasting) (C57BL/6J-ob/ob mice [8]; 2 weeks after administration): 132.50 ± 7.86 mg/dL | Blood glucose level (fasting) (C57BL/6J-ob/ob mice [8]; 5 weeks after administration): 144.67 ± 8.96 mg/dL | Gene expression level (ratio), [W]Adiponectin [9]: 1.58 ± 0.02 | Gene expression level (ratio), [W]GLUT4 [9]: 1.15 ± 0.02 | Gene expression level (ratio), [W]IL-6 [9]: 0.19 ± 0.12 | Gene expression level (ratio), [W]LPL [9]: 0.93 ± 0.04 | Gene expression level (ratio), [W]MCP-1 [9]: 0.44 ± 0.10 | Gene expression level (ratio), [W]PPARγ [9]: 1.13 ± 0.02 | Gene expression level (ratio), [W]Perilipin [9]: 1.37 ± 0.13 | Gene expression level (ratio), [W]TNF-α [9]: 1.08 ± 0.01 | Gene expression level (ratio), [W]aP2 [9]: 2.03 ± 0.01 | Adiponectin level in blood, times higher than solvent administration group (C57BL/6J-ob/ob mice [10]): ≥ 2.5 times | Blood glucose level (OGTT) (C57BL/6J-ob/ob mice [11]; 0 min after 2 g/kg glucose p.o.): 144.67 ± 8.96 mg/dL | Blood glucose level (OGTT) (C57BL/6J-ob/ob mice [11]; 30 min after 2 g/kg glucose p.o.): 273.55 ± 14.15 mg/dL | Blood glucose level (OGTT) (C57BL/6J-ob/ob mice [11]; 60 min after 2 g/kg glucose p.o.): 170.60 ± 4.45 mg/dL | Blood glucose level (OGTT) (C57BL/6J-ob/ob mice [11]; 120 min after 2 g/kg glucose p.o.): 175.79 ± 18.06 mg/dL | Gained body weight (C57BL/6J-ob/ob mice [12]): 10.83 ± 0.58 g | white adipose tissue (C57BL/6J-ob/ob mice [12]): 5.70 ± 0.17 g
